According to ChEMBL document CHEMBL4304811, “Development of a Water-Soluble Indolylmaleimide Derivative IM-93 Showing Dual Inhibition of Ferroptosis and NETosis” (ACS Med Chem Lett, 2019):
Calls of active or inactive are those of the source. No cut-off for these calls is given here.

Legend:
[1] = molecular target: Myosin-IIIa (Homo sapiens) (UniProt Q8NEV4); assay: Binding affinity to wild-type human partial length MYO3A (M1 to K338 residues) expressed in bacterial expression system assessed as residual binding level at 10 uM by Kinomescan method relative to control
[2] = molecular target: Homeodomain-interacting protein kinase 4 (Homo sapiens) (UniProt Q8NE63); assay: Binding affinity to wild-type human partial length HIPK4 (M1 to V384 residues) expressed in bacterial expression system assessed as residual binding level at 10 uM by Kinomescan method relative to control
[3] = molecular target: Vascular endothelial growth factor receptor 1 (Homo sapiens) (UniProt P17948); assay: Binding affinity to wild-type human partial length FLT1 (R781 to F1239 residues) expressed in bacterial expression system assessed as residual binding level at 10 uM by Kinomescan method relative to control
[4] = molecular target: Receptor-interacting serine/threonine-protein kinase 4 (Homo sapiens) (UniProt P57078); assay: Binding affinity to wild-type human partial length RIPK4 (M1 to V303 residues) expressed in mammalian expression system assessed as residual binding level at 10 uM by Kinomescan method relative to control
[5] = molecular target: Calcium/calmodulin-dependent protein kinase type II subunit delta (Homo sapiens) (UniProt Q13557); assay: Binding affinity to wild-type human partial length CAMK2D (M1 to E329 residues) expressed in bacterial expression system assessed as residual binding level at 10 uM by Kinomescan method relative to control
[6] = molecular target: Serine/threonine-protein kinase MRCK beta (Homo sapiens) (UniProt Q9Y5S2); assay: Binding affinity to wild-type human partial length MRCKB (L56 to S417 residues) expressed in bacterial expression system assessed as residual binding level at 10 uM by Kinomescan method relative to control
[7] = molecular target: Dual specificity tyrosine-phosphorylation-regulated kinase 1B (Homo sapiens) (UniProt Q9Y463); assay: Binding affinity to wild-type human full length DYRK1B (M1 to S629 residues) expressed in bacterial expression system assessed as residual binding level at 10 uM by Kinomescan method relative to control
[8] = molecular target: Serine/threonine-protein kinase N1 (Homo sapiens) (UniProt Q16512); assay: Binding affinity to wild-type human partial length PKN1 (E598 to C948 residues) expressed in bacterial expression system assessed as residual binding level at 10 uM by Kinomescan method relative to control
[9] = molecular target: Serine/threonine-protein kinase Chk2 (Homo sapiens) (UniProt O96017); assay: Binding affinity to wild-type human partial length CHEK2 (S253 to E574 residues) expressed in bacterial expression system assessed as residual binding level at 10 uM by Kinomescan method relative to control
[10] = molecular target: Serine/threonine-protein kinase haspin (Homo sapiens) (UniProt Q8TF76); assay: Binding affinity to wild-type human partial length HASPIN (I452 to K798 residues) expressed in mammalian expression system assessed as residual binding level at 10 uM by Kinomescan method relative to control
[11] = molecular target: AP2-associated protein kinase 1 (Homo sapiens) (UniProt Q2M2I8); assay: Binding affinity to wild-type human partial length AAK1 (G25 to L333 residues) expressed in bacterial expression system assessed as residual binding level at 10 uM by Kinomescan method relative to control
[12] = molecular target: Receptor tyrosine-protein kinase erbB-2 (Homo sapiens) (UniProt P04626); assay: Binding affinity to wild-type human partial length ERBB2 (K646 to V1225 residues) expressed in mammalian expression system assessed as residual binding level at 10 uM by Kinomescan method relative to control
[13] = molecular target: Serine/threonine-protein kinase Nek10 (Homo sapiens) (UniProt Q6ZWH5); assay: Binding affinity to wild-type human partial length NEK10 (L488 to R809 residues) expressed in mammalian expression system assessed as residual binding level at 10 uM by Kinomescan method relative to control
[14] = molecular target: Leucine-rich repeat serine/threonine-protein kinase 2 (Homo sapiens) (UniProt Q5S007); assay: Binding affinity to wild-type human partial length LRRK2 (H970 to E2527 residues) expressed in mammalian expression system assessed as residual binding level at 10 uM by Kinomescan method relative to control
[15] = molecular target: Non-receptor tyrosine-protein kinase TYK2 (Homo sapiens) (UniProt P29597); assay: Binding affinity to wild-type human partial length TYK2 JH1 catalytic domain (V877 to C1187 residues) expressed in mammalian expression system assessed as residual binding level at 10 uM by Kinomescan method relative to control
[16] = molecular target: Mitogen-activated protein kinase kinase kinase 13 (Homo sapiens) (UniProt O43283); assay: Binding affinity to wild-type human full length LZK (M1 to W966 residues) expressed in mammalian expression system assessed as residual binding level at 10 uM by Kinomescan method relative to control
[17] = molecular target: Hormonally up-regulated neu tumor-associated kinase (Homo sapiens) (UniProt P57058); assay: Binding affinity to wild-type human partial length HUNK (A31 to K354 residues) expressed in bacterial expression system assessed as residual binding level at 10 uM by Kinomescan method relative to control
[18] = molecular target: Cyclin-dependent kinase 19 (Homo sapiens) (UniProt Q9BWU1); assay: Binding affinity to wild-type human partial length CDK11 (M1 to N360 residues) expressed in bacterial expression system assessed as residual binding level at 10 uM by Kinomescan method relative to control
[19] = system: eIF-2-alpha kinase GCN2 (Homo sapiens), Q9P2K8 [S808G]; assay: Binding affinity to wild-type human partial length GCN2 kinase domain 2 (R585 to T1018 residues) S808G mutant expressed in bacterial expression system assessed as residual binding level at 10 uM by Kinomescan method relative to control
Neutrophil [20] = assay: Inhibition of PMA-induced NETosis in human neutrophils assessed as reduction in lipid peroxidation at 20 uM preincubated for 30 mins followed by PMA stimulation measured after 30 mins by C11-Bodipy fluorescent dye based flow cytometry
[21] = molecular target: Activin receptor type-2B (Homo sapiens) (UniProt Q13705); assay: Binding affinity to wild-type human ACVR2B (H169 to D504 residues) expressed in bacterial expression system assessed as residual binding level at 10 uM by Kinomescan method relative to control
Neutrophil [22] = assay: Inhibition of PMA-induced NETosis in human neutrophils assessed as inhibition of ROS production at 25 uM pretreated for 25 mins followed by PMA stimulation and measured after 20 mins by DCFH-DA based flow cytometry; type: functional, cell-based
[23] = molecular target: Tyrosine-protein kinase Srms (Homo sapiens) (UniProt Q9H3Y6); assay: Binding affinity to wild-type human partial length SRMS (L208 to P488 residues) expressed in mammalian expression system assessed as residual binding level at 10 uM by Kinomescan method relative to control
[24] = molecular target: Serine/threonine-protein kinase PLK2 (Homo sapiens) (UniProt Q9NYY3); assay: Binding affinity to wild-type human partial length PLK2 (H58 to F354 residues) expressed in mammalian expression system assessed as residual binding level at 10 uM by Kinomescan method relative to control

Calcium/calmodulin-dependent protein kinase type II subunit delta (Homo sapiens), sequence (Q13557 whole entry, the tested form may be a part): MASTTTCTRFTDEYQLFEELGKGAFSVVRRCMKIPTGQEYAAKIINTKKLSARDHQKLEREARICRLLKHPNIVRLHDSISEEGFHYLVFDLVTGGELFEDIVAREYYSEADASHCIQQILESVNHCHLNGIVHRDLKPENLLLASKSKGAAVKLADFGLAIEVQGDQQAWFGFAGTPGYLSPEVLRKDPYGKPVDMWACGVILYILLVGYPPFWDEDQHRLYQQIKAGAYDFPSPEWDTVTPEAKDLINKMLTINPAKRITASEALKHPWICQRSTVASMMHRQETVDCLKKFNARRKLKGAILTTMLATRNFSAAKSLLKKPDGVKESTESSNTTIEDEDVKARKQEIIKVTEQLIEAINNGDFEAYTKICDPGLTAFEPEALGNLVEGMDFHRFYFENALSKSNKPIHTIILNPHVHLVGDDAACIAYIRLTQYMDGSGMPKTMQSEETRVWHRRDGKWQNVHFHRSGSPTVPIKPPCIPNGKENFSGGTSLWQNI
Serine/threonine-protein kinase haspin (Homo sapiens), sequence (Q8TF76 whole entry, the tested form may be a part): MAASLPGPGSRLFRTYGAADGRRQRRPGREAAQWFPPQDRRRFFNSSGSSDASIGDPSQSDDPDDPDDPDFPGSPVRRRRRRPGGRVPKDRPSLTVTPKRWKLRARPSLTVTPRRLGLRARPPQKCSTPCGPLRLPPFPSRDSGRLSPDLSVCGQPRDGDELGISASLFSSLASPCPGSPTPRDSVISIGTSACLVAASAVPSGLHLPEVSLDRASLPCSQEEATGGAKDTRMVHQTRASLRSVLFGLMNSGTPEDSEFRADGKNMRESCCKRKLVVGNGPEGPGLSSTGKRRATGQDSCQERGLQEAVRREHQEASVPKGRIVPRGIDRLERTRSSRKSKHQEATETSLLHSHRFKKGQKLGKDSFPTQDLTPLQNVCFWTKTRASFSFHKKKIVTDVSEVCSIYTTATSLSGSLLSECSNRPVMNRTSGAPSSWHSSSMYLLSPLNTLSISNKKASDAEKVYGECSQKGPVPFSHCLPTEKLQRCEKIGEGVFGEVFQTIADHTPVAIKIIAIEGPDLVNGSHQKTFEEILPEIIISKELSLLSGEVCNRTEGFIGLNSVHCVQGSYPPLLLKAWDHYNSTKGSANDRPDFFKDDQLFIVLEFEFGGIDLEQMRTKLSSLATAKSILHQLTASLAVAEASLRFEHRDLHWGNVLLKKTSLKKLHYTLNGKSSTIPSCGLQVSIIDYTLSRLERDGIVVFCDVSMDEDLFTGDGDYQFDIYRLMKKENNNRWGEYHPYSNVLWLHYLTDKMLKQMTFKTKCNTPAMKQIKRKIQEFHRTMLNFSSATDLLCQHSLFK
Mitogen-activated protein kinase kinase kinase 13 (Homo sapiens), sequence (O43283 whole entry, the tested form may be a part): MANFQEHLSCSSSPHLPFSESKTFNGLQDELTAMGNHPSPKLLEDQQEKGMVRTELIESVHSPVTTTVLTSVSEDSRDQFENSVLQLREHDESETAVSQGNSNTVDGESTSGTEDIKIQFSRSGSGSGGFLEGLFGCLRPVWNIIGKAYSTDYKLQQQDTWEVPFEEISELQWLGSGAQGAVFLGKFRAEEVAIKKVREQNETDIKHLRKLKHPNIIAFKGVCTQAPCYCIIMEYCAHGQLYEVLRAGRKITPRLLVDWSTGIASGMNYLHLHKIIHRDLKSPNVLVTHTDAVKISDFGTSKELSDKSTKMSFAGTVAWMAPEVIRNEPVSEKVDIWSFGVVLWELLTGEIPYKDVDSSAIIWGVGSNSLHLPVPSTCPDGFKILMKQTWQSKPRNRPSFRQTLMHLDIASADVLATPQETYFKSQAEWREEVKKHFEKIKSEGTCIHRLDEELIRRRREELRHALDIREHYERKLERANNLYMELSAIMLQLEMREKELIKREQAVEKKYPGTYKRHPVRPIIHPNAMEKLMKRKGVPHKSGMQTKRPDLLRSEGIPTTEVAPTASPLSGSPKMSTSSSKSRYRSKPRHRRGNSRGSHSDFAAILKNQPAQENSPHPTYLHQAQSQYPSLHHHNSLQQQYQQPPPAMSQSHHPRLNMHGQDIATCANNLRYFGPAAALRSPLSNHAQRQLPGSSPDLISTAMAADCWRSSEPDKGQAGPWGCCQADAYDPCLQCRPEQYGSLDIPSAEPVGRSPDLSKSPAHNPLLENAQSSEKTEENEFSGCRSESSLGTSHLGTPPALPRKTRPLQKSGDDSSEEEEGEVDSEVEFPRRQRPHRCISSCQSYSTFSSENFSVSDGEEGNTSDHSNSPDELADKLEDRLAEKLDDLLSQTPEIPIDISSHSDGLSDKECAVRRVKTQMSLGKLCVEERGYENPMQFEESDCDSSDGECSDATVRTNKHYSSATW
Homeodomain-interacting protein kinase 4 (Homo sapiens), sequence (Q8NE63 whole entry, the tested form may be a part): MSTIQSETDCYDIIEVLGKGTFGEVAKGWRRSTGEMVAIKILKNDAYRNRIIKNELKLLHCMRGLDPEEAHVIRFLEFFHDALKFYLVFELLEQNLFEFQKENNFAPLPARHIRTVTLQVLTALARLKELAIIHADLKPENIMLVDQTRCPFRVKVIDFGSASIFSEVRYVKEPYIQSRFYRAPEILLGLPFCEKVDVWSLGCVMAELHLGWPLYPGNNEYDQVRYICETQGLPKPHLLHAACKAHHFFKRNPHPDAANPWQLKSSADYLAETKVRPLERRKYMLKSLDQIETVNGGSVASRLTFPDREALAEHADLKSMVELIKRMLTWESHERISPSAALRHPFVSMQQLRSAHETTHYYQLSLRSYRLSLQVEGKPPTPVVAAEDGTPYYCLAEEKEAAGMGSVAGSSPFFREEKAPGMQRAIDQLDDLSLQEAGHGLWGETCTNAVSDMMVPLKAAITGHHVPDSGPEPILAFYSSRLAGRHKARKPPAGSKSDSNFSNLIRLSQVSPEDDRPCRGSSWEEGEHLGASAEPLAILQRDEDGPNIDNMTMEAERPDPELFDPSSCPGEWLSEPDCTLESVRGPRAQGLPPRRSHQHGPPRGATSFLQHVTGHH
Receptor tyrosine-protein kinase erbB-2 (Homo sapiens), sequence (P04626 whole entry, the tested form may be a part): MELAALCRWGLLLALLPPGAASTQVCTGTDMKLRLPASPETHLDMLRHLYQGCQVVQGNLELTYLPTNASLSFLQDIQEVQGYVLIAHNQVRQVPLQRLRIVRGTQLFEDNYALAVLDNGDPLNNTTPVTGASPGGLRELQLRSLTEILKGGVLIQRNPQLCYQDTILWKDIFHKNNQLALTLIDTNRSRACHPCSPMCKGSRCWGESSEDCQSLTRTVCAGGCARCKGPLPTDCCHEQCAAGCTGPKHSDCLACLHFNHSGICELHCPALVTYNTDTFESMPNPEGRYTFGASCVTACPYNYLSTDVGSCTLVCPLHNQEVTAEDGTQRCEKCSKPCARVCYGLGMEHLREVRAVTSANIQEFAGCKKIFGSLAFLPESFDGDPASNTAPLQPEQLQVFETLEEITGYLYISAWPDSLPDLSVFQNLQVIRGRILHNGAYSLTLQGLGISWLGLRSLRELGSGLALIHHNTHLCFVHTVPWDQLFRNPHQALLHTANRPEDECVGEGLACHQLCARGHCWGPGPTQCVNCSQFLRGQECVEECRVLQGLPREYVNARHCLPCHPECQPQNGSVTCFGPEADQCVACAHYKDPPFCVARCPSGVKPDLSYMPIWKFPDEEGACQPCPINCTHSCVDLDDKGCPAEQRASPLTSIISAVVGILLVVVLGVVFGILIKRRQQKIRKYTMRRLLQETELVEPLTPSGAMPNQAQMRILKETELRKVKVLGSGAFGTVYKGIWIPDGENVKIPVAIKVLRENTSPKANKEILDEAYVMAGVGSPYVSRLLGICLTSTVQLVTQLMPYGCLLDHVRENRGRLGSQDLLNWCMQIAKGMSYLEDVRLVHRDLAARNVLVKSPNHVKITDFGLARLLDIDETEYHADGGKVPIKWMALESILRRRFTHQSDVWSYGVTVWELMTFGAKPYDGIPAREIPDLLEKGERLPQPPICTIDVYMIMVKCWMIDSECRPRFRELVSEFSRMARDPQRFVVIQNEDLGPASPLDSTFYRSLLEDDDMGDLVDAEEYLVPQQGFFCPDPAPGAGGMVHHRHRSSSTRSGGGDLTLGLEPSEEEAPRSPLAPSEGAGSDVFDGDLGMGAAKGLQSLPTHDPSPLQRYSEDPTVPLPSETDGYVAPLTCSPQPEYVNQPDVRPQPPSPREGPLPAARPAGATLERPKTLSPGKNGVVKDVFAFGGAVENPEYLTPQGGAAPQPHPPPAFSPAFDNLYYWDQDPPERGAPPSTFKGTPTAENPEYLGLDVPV
Serine/threonine-protein kinase N1 (Homo sapiens), sequence (Q16512 2-942 limits assumed): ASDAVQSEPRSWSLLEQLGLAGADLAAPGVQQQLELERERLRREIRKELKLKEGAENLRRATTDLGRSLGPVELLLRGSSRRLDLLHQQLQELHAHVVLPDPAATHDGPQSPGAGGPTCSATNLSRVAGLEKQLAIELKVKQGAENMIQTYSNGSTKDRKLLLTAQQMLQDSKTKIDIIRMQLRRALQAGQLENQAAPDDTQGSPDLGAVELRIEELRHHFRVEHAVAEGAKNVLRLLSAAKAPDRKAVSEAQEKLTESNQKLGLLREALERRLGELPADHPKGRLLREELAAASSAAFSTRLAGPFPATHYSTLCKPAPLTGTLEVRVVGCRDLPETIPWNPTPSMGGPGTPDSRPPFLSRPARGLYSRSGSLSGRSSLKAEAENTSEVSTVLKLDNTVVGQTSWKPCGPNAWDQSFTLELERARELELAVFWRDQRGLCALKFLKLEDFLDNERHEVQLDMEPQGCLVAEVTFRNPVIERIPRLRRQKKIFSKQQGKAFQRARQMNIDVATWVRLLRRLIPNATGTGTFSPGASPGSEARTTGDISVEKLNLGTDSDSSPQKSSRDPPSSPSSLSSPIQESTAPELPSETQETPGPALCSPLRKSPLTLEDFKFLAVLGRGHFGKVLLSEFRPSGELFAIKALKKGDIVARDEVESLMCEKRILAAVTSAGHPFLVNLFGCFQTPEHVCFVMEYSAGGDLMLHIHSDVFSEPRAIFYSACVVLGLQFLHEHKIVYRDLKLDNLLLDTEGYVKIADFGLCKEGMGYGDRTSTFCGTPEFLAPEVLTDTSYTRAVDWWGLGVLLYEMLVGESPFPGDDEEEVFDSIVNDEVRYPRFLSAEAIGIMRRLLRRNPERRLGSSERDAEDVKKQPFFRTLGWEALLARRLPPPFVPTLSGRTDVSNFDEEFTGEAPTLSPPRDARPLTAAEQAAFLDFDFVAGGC

Work on `CC(C)N1C(=O)C(NCCCN(C)C)=C(c2cn(C)c3ccccc23)C1=O.Cl` yielded an Activity [1] of 89%, an Activity [2] of 84% and an Activity [3] of 82%. The Activity [4] was 100%, the Activity [5] was 98% and the Activity [6] was 85%. The Activity [7] was 93%, the Activity [8] was 100% and the Activity [9] was 80%. It also gave an Activity [10] of 100%, an Activity [11] of 100% and an Activity [12] of 92%. It also gave an Activity [13] of 95%, an Activity [14] of 94% and an Activity [15] of 82%. It also gave an Activity [16] of 100%, an Activity [17] of 100% and an Activity [18] of 94%. The Activity [19] was 100%, the inhibition (Neutrophil [20]) was “Active” and the Activity [21] was 96%. The inhibition (Neutrophil [22]) was “inactive”, the Activity [23] was 82% and the Activity [24] was 97%.
